Measured values as given in patent US11666589B2, “Pivarubicin and benzarubicin compositions” (Paradox Pharmaceuticals, Inc., priority 2020, dated 2023).
“And” between values parts separate entries of the source, which are not always exact repeats. Equal entries are not always repeated. Where two headings read alike, the source gives them in different places.

Assays:
MDA-MB-231 cells = test: MTT cytotoxicity, TNBC monolayer MDA-MB-231; type: cell-based, human; settings: MDA-MB-231, 48 h
Protocol: Rottlerin treatment of cells, cell viability analysis by MTT [28] and immunoblot identification of protein expression were performed and described previously.
Based upon the ability of pivarubicin to circumvent multiple mechanisms of resistance against doxorubicin, we then examined the efficacy of pivarubicin against TNBC in comparison to doxorubicin, using the following procedure, using two basal TNBC cell lines. MDA-MB-231 cells and SUM-159 cells were maintained under adherent monolayer growth conditions. Upon reaching 50% confluency, cells were treated for 48 h with the dose range of doxorubicin or pivarubicin as indicated in FIGS. 6A and 6B.
In the absence of specific receptor targets, the current treatment of metastatic TNBC relies on doxorubicin-based multidrug therapy, with only limited effectiveness. […] Once achieving a primary tumor volume of 150-190 mm^3, mice were randomized into three cohorts for treatment with the MTD of pivarubicin or doxorubicin, or the equivalent volume per body weight of vehicle.

CEM/VLB-100 = test: Drug resistance of P-glycoprotein overexpressing CEM/VLB-100 cells; type: cell-based, human; settings: CEM/VLB-100 versus CCRF-CEM
Protocol: (§1) Pivarubicin used for TNBC studies was synthesized by Dr. John Rimoldi (Univ. of Mississippi) using the previously described protocol. Doxorubicin HCl, rottlerin and all antibodies were purchased from Sigma-Aldrich (St. Louis, Mo.). For in vitro experiments, doxorubicin and pivarubicin were dissolved in DMSO. The final maximum DMSO concentration used for in vitro drug treatments (1% for 72 hours) was not cytotoxic. IL-3-dependent 32D.3 murine myeloid cells, CCRF-CEM human lymphoblastic leukemia cells and multidrug-resistant variants (generous gift of Dr. William T. Beck, St. Jude Children's Research Hospital, Memphis, Tenn.), 293 embryonic human kidney cells and HL-60 human acute myeloid leukemia cells transfected with Bcr-Abl, Bcl-XL or empty expression vectors (generous gift of Dr. Kapil Bhalla, Univ. of Miami) were maintained as previously described. K562 human chronic myelogenous leukemia and LNCaP human prostate cancer cells were purchased from ATCC (Manassas, Va.) and maintained as described by the vendor. LNCaP/Bcl-2 cells were the generous gift of Dr. Ralph Buttyan (Columbia Univ.). Luminescent MDA-MB-231-LM2 (LM-2; metastatic lung subpopulation isolated from human TNBC MDA-MB-231 cells transduced with eIF1a-Luc2-puro lentivirus) were generously provided by Dr. Yibin Kang, Princeton Univ.) and maintained in culture as previously described. […]

LM2 tumors = test: Orthotopic xenograft of luminescent MDA-MB-231 (LM2) cells in mammary glands
Protocol: Monolayer LM2 cells were trypsinized and resuspended in DMEM media containing 10% FBS and 1× antibiotic/antimitotic. Cell concentration was adjusted to yield 2.5 […] for each 10 uL injection in PBS. After preparation for injection, cells were kept on ice at all times. Cells were surgically implanted into the left and right inguinal mammary glands of 4-week-old female NSG mice (NOD/SCID IL2Rγ−/−; Jackson Laboratory [Bar Harbor Me.] #5557) bred in-house. Mice were anesthetized with 1.2% avertin via intraperitoneal (i.p.) injection prior to surgery. Mice were also injected subcutaneously between shoulder blades with rimadyl for pain relief on day of surgery and on day following surgery. Primary tumor growth prior to and during treatment was monitored initially by manual palpation for tumor appearance, then twice weekly using digital calipers. Tumor volume was calculated by the formula: Volume=(Width2×Length)/2. When tumors attained a volume of approximately […], cohorts of 10 randomized drug-naïve, female, NSG mice (8±1 weeks old, 23±2 g) were administered the maximum tolerated dose (MTD) of pivarubicin, doxorubicin or the equivalent volume of vehicle (70% sterile saline, 15% ethanol, 15% Cremophor EL) as a bolus i.p. injection in parallel experiments. Tumor volumes were measured in a blinded manner.
Mice were imaged using Xenogen In Vivo Imaging System® Lumina from Perkin Elmer (Waltham Mass.). Stock D-Luciferin, Firefly, potassium salt (Perkin Elmer, 122799) was prepared in DPBS at a concentration of 30 mg/mL and sterile filtered with 0.2 micrometer syringe filter. Luciferin was further diluted to 15 mg/mL in DPBS prior to injection. Mice were injected i.p. with 200 uL of luciferin. Primary tumors were imaged by placing mice in dorsal recumbency using luminescent setting of auto exposure, field of view D with resolution setting of 4 (medium binning), 10 minutes after injection with luciferin, approximately 5 minutes following anesthetization with isoflurane. Data are reported as total flux in photons per second (p/s) using Living Image software.
In a study of doxorubicin treatment of TNBC-bearing NSG mice, LM2 cells were implanted into the 4R and 4L cleared mammary fat pads of female NSG mice and permitted to proliferate for 26 days until a tumor volume range of 125-190 mm3 was reached based on caliper measurements. Doxorubicin was administered IP rapid push in 70% sterile saline, 15% EtOH, 15% Cremophor EL at 14-day intervals, with tumor volumes measured at indicated days post-implantation, as summarized in FIG. 7A. […] At endpoint, mice were euthanized, and primary tumors resected for volume (FIG. 7B), weight (FIG. 7C), and luminescence (FIG. 7D) measurements. Endpoint results are expressed as the mean±standard error of 10 mice per group. Statistical significance was determined by the Wilcoxon rank-sum test.
Pivarubicin treatment of TNBC-bearing NSG mice was also studied. LM2 cells were implanted into the 4R and 4L cleared mammary fat pads of female NSG mice and permitted to proliferate for 22-24 days until a tumor volume range of 125-190 mm3 was reached based on caliper measurements. Pivarubicin was administered IP rapid push in 70% sterile saline, 15% EtOH, 15% Cremophor EL as either a single dose at 26.6 mg/kg (FIG. 8A) or in two 16.5-mg/kg doses at a 14-day interval (FIG. 8B) with tumor volumes measured at indicated days post-implantation. […] At endpoint, mice were euthanized, and primary tumors resected for volume (FIG. 8C) and weight (FIG. 8D) measurements. Results are expressed as the mean±standard error of 10 mice per group. Statistical significance was determined by the Wilcoxon rank-sum test.

CEM/VLB-10 = test: Drug resistance of P-glycoprotein overexpressing CEM/VLB-10 cells; type: cell-based, human; settings: CEM/VLB-10 versus CCRF-CEM
Protocol: as §1

[1] = two doses of 16.5 mg/kg i.p. at two-week interval, endpoint

## COc1cccc2c1C(=O)c1c(O)c3c(c(O)c1C2=O)C[C@@](O)(C(=O)COC(=O)C(C)(C)C)C[C@@H]3O[C@H]1C[C@H](NCc2ccccc2)[C@H](O)[C@H](C)O1 [Pivarubicin, N-Benzyladriamycin-14-pivalate]
MDA-MB-231 cells
  IC50: 2.5 µM
MDA-MB-231 cells; read-out: IC90
  IC90: 4.5 µM and 5.1 µM
CEM/VLB-100
  resistance: 3 fold
LM2 tumors; single MTD dose (26.6 mg/kg i.p.)
  mean decrease in tumor volume compared with mean volume prior to drug administration: 40%
LM2 tumors; single MTD, tumor-bearing NSG mice
  mean weight loss (poorly reversible): 20%
LM2 tumors; [1]
  decrease in tumor volume compared with vehicle treatment: 50%
  decrease in tumor weight compared with vehicle treatment: 40%
CEM/VLB-10
  resistance: no resistance

## COc1cccc2c1C(=O)c1c(O)c3c(c(O)c1C2=O)C[C@@](O)(C(=O)CO)C[C@@H]3O[C@H]1C[C@H](N)[C@H](O)[C@H](C)O1 [Doxorubicin, reference compound]
MDA-MB-231 cells; Homo sapiens
  IC90: > 20 µM
MDA-MB-231 cells
  IC90: 20 µM
CEM/VLB-100
  resistance: 73 fold
LM2 tumors; 1.4 mg/kg, then 1.6 mg/kg 14 days later, i.p.
  tumor growth compared with vehicle treatment (volume, weight): failed to exhibit reduced growth
LM2 tumors; after 1.4 mg/kg and 1.6 mg/kg
  weight loss in tumor-bearing mice: excessive and irreversible weight loss
CEM/VLB-10
  resistance: 12 fold
